Results taken from patent US6737383B1, “Herbicidal oxadiazolidines” (priority 1999, dated 2004).

Experiments:
bedstraw = assay: Test B pre/postemergence bedstraw; format: in vivo, Galium aparine; conditions: Postemergence; for Plant response rating, Bedstraw: scale 0 to 10, 0 is no effect, 10 is complete control; for Bedstraw plant response rating: scale of 0 to 10 where 0 is no effect and 10 is complete control
Procedure, shortened: (§1)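 Response is a visual 0-to-10 score relative to untreated plants, where 0 means no effect and 10 means complete control, taken twelve to sixteen days after application. Treatments went onto soil at planting and onto foliage of 1- to 4-leaf plants, using a surfactant-containing non-phytotoxic solvent.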

blackgrass = assay: Test B pre/postemergence blackgrass; format: in vivo, Alopecurus myosuroides
Procedure, shortened: as §1

surinam grass = assay: Test B pre/postemergence surinam grass; format: in vivo, Brachiaria decumbens
Procedure, shortened: as §1

cocklebur = assay: Test B pre/postemergence cocklebur; format: in vivo, Xanthium strumarium
Procedure, shortened: as §1

corn = assay: Test B pre/postemergence corn; format: in vivo, Zea mays
Procedure, shortened: as §1

crabgrass = assay: Test B pre/postemergence crabgrass; format: in vivo, Digitaria sanguinalis
Procedure, shortened: as §1

giant foxtail = assay: Test B pre/postemergence giant foxtail; format: in vivo, Setaria faberii
Procedure, shortened: as §1

morningglory = assay: Test B pre/postemergence morningglory; format: in vivo, Ipomoea hederacea
Procedure, shortened: as §1

pigweed = assay: Test B pre/postemergence pigweed; format: in vivo, Amaranthus retroflexus
Procedure, shortened: as §1

rape = assay: Test B pre/postemergence rape; format: in vivo, Brassica napus
Procedure, shortened: as §1

soybean = assay: Test B pre/postemergence soybean; format: in vivo, Glycine max
Procedure, shortened: as §1

sugar beet = assay: Test B pre/postemergence sugar beet; format: in vivo, Beta vulgaris
Procedure, shortened: as §1

velvetleaf = assay: Test B pre/postemergence velvetleaf; format: in vivo, Abutilon theophrasti
Procedure, shortened: as §1

wheat = assay: Test B pre/postemergence wheat; format: in vivo, Triticum aestivum
Procedure, shortened: as §1

wild oat = assay: Test B pre/postemergence wild oat; format: in vivo, Avena fatua
Procedure, shortened: as §1

purple nutsedge = assay: Test B pre/postemergence purple nutsedge; format: in vivo, Cyperus rotundus
Procedure, shortened: as §1

rice = assay: Test B flood test rice; format: in vivo, Oryza sativa
Procedure, shortened: (§2)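 Read-out is a visual response score from 0 (no effect) to 10 (complete control), assigned by comparison with untreated controls. Treatment was applied at the 2-leaf stage, and plants stayed in the greenhouse for twelve to sixteen days before scoring.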

smallflower flatsedge = assay: Test B flood test smallflower flatsedge; format: in vivo, Cyperus difformis
Procedure, shortened: as §2

duck salad = assay: Test B flood test duck salad; format: in vivo, Heteranthera limosa
Procedure, shortened: as §2

bamyardgrass = assay: Test B flood test barnyardgrass; format: in vivo, Echinochloa crus-galli
Procedure, shortened: as §2

[1] = Postemergence, Rate 125 g/ha, scale 0 to 10, 0 is no effect, 10 is complete control
[2] = Postemergence, Rate 250 g/ha, scale 0 to 10, 0 is no effect, 10 is complete control
[3] = Postemergence, Rate 500 g/ha, scale of 0 to 10 where 0 is no effect and 10 is complete control
[4] = Preemergence, Rate 62 g/ha, scale 0 to 10 (0 no effect, 10 complete control)
[5] = Preemergence, Rate 125 g/ha, scale of 0 to 10 where 0 is no effect and 10 is complete control
[6] = Preemergence, Rate 250 g/ha, scale of 0 to 10 where 0 is no effect and 10 is complete control
[7] = Preemergence, Rate 500 g/ha, scale 0 to 10, 0 is no effect, 10 is complete control
[8] = Rate 62 g/ha, Postemergence, scale of 0 to 10 where 0 is no effect and 10 is complete control
[9] = Preemergence, Rate 250 g/ha, scale 0 to 10, 0 is no effect, 10 is complete control
[10] = Rate 62 g/ha, flood test species, Pre-emergence, visual evaluation after twelve to sixteen days
[11] = Rate 125 g/ha, under heading Pre-emergence, flood test species, visual evaluation after twelve to sixteen days
[12] = Rate 250 g/ha, Pre-emergence, flood-test species, scale 0 to 10, 0 is no effect, 10 is complete control
[13] = Rate 500 g/ha, Pre-emergence, flood test species, scale 0 to 10 (0 no effect, 10 complete control)

CC(C)N(C(=O)n1oc(=O)n(C)c1=O)c1ccccc1 [Compound 409]
3: B. signalgrass plant response rating (surinam grass; [8]) | Plant response rating, Rape (rape; [2]) | Barnyardgrass plant response rating (bamyardgrass; [12]) | Barnyardgrass plant response rating (bamyardgrass; [13])
6: Blackgrass plant response rating (blackgrass; [8]) | Crabgrass plant response rating (crabgrass; [8]) | Rape plant response rating (rape; [7]) | Velvetleaf plant response rating (velvetleaf; [9])
8: Plant response rating, Blackgrass (blackgrass; [1]) | Plant response rating, B. signalgrass (surinam grass; [2]) | Plant response rating, Corn (corn; [5]) | Corn plant response rating (corn; [9]) | Plant response rating, Giant foxtail (giant foxtail; [1]) | Giant foxtail plant response rating (giant foxtail; [8]) | Plant response rating, Redroot pigweed (pigweed; [5]) | Redroot pigweed plant response rating (pigweed; [9]) | Soybean plant response rating (soybean; [7]) | Sugarbeets plant response rating (sugar beet; [9]) | Velvetleaf plant response rating (velvetleaf; [7]) | Plant response rating, Wheat (wheat; [5]) | Wild oats plant response rating (wild oat; [7]) | Nutsedge plant response rating (purple nutsedge; [9]) | Nutsedge plant response rating (purple nutsedge; [7])
9: Plant response rating, Blackgrass (blackgrass; [2]) | B. signalgrass plant response rating (surinam grass; [3]) | B. signalgrass plant response rating (surinam grass; Preemergence, Rate 500 g/ha, scale of 0 to 10 where 0 is no effect and 10 is complete control) | Plant response rating, Crabgrass (crabgrass; [1]) | Plant response rating, Crabgrass (crabgrass; [2]) | Crabgrass plant response rating (crabgrass; [3]) | Plant response rating, Crabgrass (crabgrass; [4]) | Plant response rating, Crabgrass (crabgrass; [5]) | Plant response rating, Giant foxtail (giant foxtail; [2]) | Giant foxtail plant response rating (giant foxtail; [3]) | Plant response rating, Giant foxtail (giant foxtail; [4]) | Plant response rating, Morningglory (morningglory; [2]) | Sugarbeets plant response rating (sugar beet; [7]) | Wheat plant response rating (wheat; [9])
2: Plant response rating, Bedstraw (bedstraw; Rate 125 g/ha) | Plant response rating, Bedstraw (bedstraw; Rate 250 g/ha) | Cocklebur plant response rating (cocklebur; [7]) | Plant response rating, Morningglory (morningglory; [5]) | Plant response rating, Sugarbeets (sugar beet; [4]) | Plant response rating, Velvetleaf (velvetleaf; [4]) | S. Flatsedge plant response rating (smallflower flatsedge; [12]) | S. Flatsedge plant response rating (smallflower flatsedge; [13]) | Barnyardgrass plant response rating (0 to 10 scale, 0 is no effect, 10 is complete control) (bamyardgrass; [11])
5: Bedstraw plant response rating (bedstraw; Rate 500 g/ha) | Plant response rating, B. signalgrass (surinam grass; [1]) | Plant response rating, Corn (corn; [1]) | Morningglory plant response rating (morningglory; [9]) | Morningglory plant response rating (morningglory; [7]) | Redroot pigweed plant response rating (pigweed; [3]) | Plant response rating, Soybean (soybean; [2]) | Soybean plant response rating (soybean; [3]) | Plant response rating, Velvetleaf (velvetleaf; [5]) | Plant response rating, Wild oats (wild oat; [5])
0: Bedstraw plant response rating (bedstraw; Rate 62 g/ha) | Plant response rating, B. signalgrass (surinam grass; [4]) | Plant response rating, Cocklebur (cocklebur; [1]) | Plant response rating, Cocklebur (cocklebur; [4]) | Plant response rating, Cocklebur (cocklebur; [5]) | Cocklebur plant response rating (cocklebur; [8]) | Corn plant response rating (corn; [8]) | Plant response rating, Morningglory (morningglory; [4]) | Plant response rating, Rape (rape; [4]) | Plant response rating, Rape (rape; [5]) | Plant response rating, Soybean (soybean; [4]) | Plant response rating, Soybean (soybean; [5]) | Plant response rating, Sugarbeets (sugar beet; [2]) | Sugarbeets plant response rating (sugar beet; [3]) | Plant response rating, Velvetleaf (velvetleaf; [2]) | Velvetleaf plant response rating (velvetleaf; [3]) | Plant response rating, Wild oats (wild oat; [4]) | Plant response rating, Nutsedge (purple nutsedge; [2]) | Nutsedge plant response rating (purple nutsedge; [3]) | Plant response rating, Rice (0 to 10 scale, 0 is no effect, 10 is complete control) (rice; [10]) | Rice plant response rating (0 to 10 scale, 0 is no effect, 10 is complete control) (rice; [11]) | Rice plant response rating (rice; [12]) | Rice plant response rating (rice; [13]) | Plant response rating, S. Flatsedge (0 to 10 scale, 0 is no effect, 10 is complete control) (smallflower flatsedge; [10]) | S. Flatsedge plant response rating (0 to 10 scale, 0 is no effect, 10 is complete control) (smallflower flatsedge; [11]) | Plant response rating, Ducksalad (0 to 10 scale, 0 is no effect, 10 is complete control) (duck salad; [10]) | Ducksalad plant response rating (0 to 10 scale, 0 is no effect, 10 is complete control) (duck salad; [11]) | Ducksalad plant response rating (duck salad; [12]) | Ducksalad plant response rating (duck salad; [13])
1: Cocklebur plant response rating (cocklebur; [3]) | Soybean plant response rating (soybean; [9]) | Plant response rating, Barnyardgrass (0 to 10 scale, 0 is no effect, 10 is complete control) (bamyardgrass; [10])
4: Plant response rating, Blackgrass (blackgrass; [4]) | Plant response rating, B. signalgrass (surinam grass; [5]) | Plant response rating, Redroot pigweed (pigweed; [2]) | Rape plant response rating (rape; [9]) | Plant response rating, Wheat (wheat; [4]) | Wild oats plant response rating (wild oat; [3])
10: Blackgrass plant response rating (blackgrass; [3]) | Blackgrass plant response rating (blackgrass; [6]) | Blackgrass plant response rating (blackgrass; [7]) | Corn plant response rating (corn; [7]) | Crabgrass plant response rating (crabgrass; [9]) | Crabgrass plant response rating (crabgrass; [7]) | Plant response rating, Giant foxtail (giant foxtail; [5]) | Giant foxtail plant response rating (giant foxtail; [9]) | Giant foxtail plant response rating (giant foxtail; [7]) | Morningglory plant response rating (morningglory; [3]) | Redroot pigweed plant response rating (pigweed; [7]) | Wheat plant response rating (wheat; [7])
7: Plant response rating, Blackgrass (blackgrass; [5]) | B. signalgrass plant response rating (surinam grass; [6]) | Plant response rating, Corn (corn; [2]) | Corn plant response rating (corn; [3]) | Plant response rating, Corn (corn; [4]) | Plant response rating, Redroot pigweed (pigweed; [4]) | Plant response rating, Sugarbeets (sugar beet; [5]) | Wheat plant response rating (wheat; [3]) | Wild oats plant response rating (wild oat; [9])
